These results are taken from patent publication US20190359653A1, “SELECTIVE PEPTIDE INHIBITORS OF FRIZZLED” (Genentech, Inc., priority 2016, published 2019).

The target of one assay is T1, hFZD7 CRD-His (Homo sapiens, UniProt O75084).
T1 construct: hFZD7 CRD-His [Gln33-Gly168] was expressed as a secreted protein in Trichoplusia ni cells expressing EndoH; made in house; host or cells: Trichoplusia ni cells expressing EndoH, treated with Kifunensine (baculovirus)
In words: SEC-MALS of hFZD7 CRD-His incubated with peptide. The assay is classed as binding. Here is the method:
Samples were resolved by a Superdex S200 3.2/300 column (General Electric Healthcare Life Science, Pittsburgh, Pa.; cat. no. 28990946) at 0.15 mL/min in 150 mM NaCl, 50 mM Tris-HCl pH 7.5 buffer with 1% DMSO final concentration. Runs were performed on a 1260 infinity HPLC (Agilent Technology, Santa Clara, Calif.) connected to a Dawn Heleos-II multi-angle static Light Scattering (MALS) detector and a Optilab T-rEX differential Refractive Index (dRI) detector (Wyatt Technologies, Santa Barbara, Calif.).
Samples were resolved by a Superdex S200 3.2/300 column (General Electric Healthcare Life Science, Pittsburgh, Pa.; 28990946) at a 0.15 mL/min in 150 mM NaCl, 50 mM Tris-HCl pH 7.5 buffer with 1% DMSO final concentration. Column was connected to a 1260 infinity HPLC (Agilent Technology, Santa Clara, Calif.) connected to a Dawn Heleos-II Multi-Angle static Light Scattering (MALS) detector and the Optilab T-rEX differential Refractive Index (dRI) detectors (Wyatt Technologies, Santa Barbara, Calif.).
(Size exclusion chromatography separates by hydrodynamic size, large species first.)

Assay [1] relates to Wnt1-stimulated β-catenin signaling in HEK293-TB cells. In words: luciferase reporter assay, HEK293-TB cells transfected with pCDNA3.2-Wnt1. It is filed as cell-based. In general terms: In a reporter assay the amount or activity of a reporter protein is the signal.
The test system of assay [2] is Wnt3a binding to FZD1 CRD, FZD2 CRD, and FZD7 CRD. In words: ELISA of biotinylated Wnt3a binding to FZD CRD-Fc. The conditions noted are these: peptide 0-10 μM. Here is the method:
(§1) 384-well Maxisorp plates (cat. no. 464718; Thermo Scientific) were incubated with 30 μL of Neutravidin (cat. no. 31000, Thermo Scientific; 2 μg/mL in PBS) overnight at 4° C. Plates were then washed with PBST and blocked with PBS/1% BSA for 1 hour at RT and then washed with PBST prior to further processing. The binding assay was conducted in 96 well plates (cat no. 83007-374; VWR) which were blocked with PBS/1% BSA overnight at 4° C. hFZD4 CRD-Fc or hFZD7 CRD-Fc (63 ng/mL) were incubated with either Bio-Wnt3a (25 ng/mL) or Bio-Wnt5a (50 ng/mL) in the presence of 4-fold serial dilutions of the indicated peptide in PBS overnight at 4° C. All assays included hFZD9 CRD-mIgG2A protein as a negative control. hFZD7 CRD-His was suspended in 150 mM NaCl, 50 mM Tris-HCl at pH 7.5 and when used in assays an equal volume of the same buffer control was used. The binding assay mixtures were transferred to the Neutravidin coated plates and incubated for ˜1 h at RT. The wells were then washed with PBST, incubated with anti-hIgG1-HRP (1:10,000 suspended in PBS supplemented with 1% BSA; cat. no. A18817, Invitrogen), and washed again with PBST. The signal was developed with the addition of TMB reagent (following the manufacturer's recommendation; KPL; 50-76-00) for 15 min prior to the addition of an equal volume of 1 M phosphoric acid for 10 min Absorbance was measured at 450 nm using a Tekan M1000 plate reader. Values were collected and plotted using Prism Graphpad software. All assay conditions using peptides were at 1% DMSO final concentration.
Without being bound be theory, the substantial conformational change induced by dFz7-21 on hFZD7 CRD, as exemplified by the altered geometry of the lipid binding cavity, may facilitate the accommodation of two Wnt molecules simultaneously onto the hFZD7 CRD dimer (FIG. 4e-h).
Similar results were observed using Wnt3a. […] Binding of Wnt3a to FZD1 CRD, FZD2 CRD, and FZD7 CRD increased in the presence of dFz7-21 at concentrations below about 0.5 μM (FIG. 22E), with the most binding seen in the presence of 0.01 μM-0.05 μM dFz7-21. […] Fz7-21S had no effect on Binding of Wnt3a to any of the FZD CRDs tested (FIG. 22F).
On the technique in general: An ELISA detects its analyte on a solid surface through an enzyme-linked reagent.

Assay [3] concerns the target T2, Wnt5a binding to FZD7 CRD (Homo sapiens, UniProt O75084).
T2 construct: hFZD7 CRD-Fc (cat no. 6178-FZ); purchased R&D systems 6178-FZ
As to the kind of experiment: ELISA of Wnt5a binding to FZD7 CRD, Fz7-21-derived peptide dimers. The conditions noted are these: FIGS. 23A-23J. As to the method:
as §1, with “The wells were then washed with PBST, incubated with anti-hIgG1-HRP (1:10,000 suspended in PBS supplemented with 1% BSA; cat. no. A18817, Invitrogen), and washed again with PBST.” left out, “Values were collected and plotted using Prism Graphpad software. All assay conditions using peptides were at 1% DMSO final concentration.” left out

Regarding “LPSDDLEFWSHVMY [Fz7-21S, negative control]”, on hFZD7 CRD-His (1:10, relative to the DMSO control), the “ΔMW (kDa)” value was 2.6 kDa. In addition, on hFZD7 CRD-His (protein:peptide 1:10), the “MW (kDa)” value was found to be 23.5 kDa. The “inhibition of Wnt1 signaling” value in assay [1] is “not found to inhibit”. Further, in assay [2], the “effect on Wnt3a binding to FZD1, FZD2 and FZD7 CRD” value is “showed no effect”. The “effect on recruitment of Wnt5a to FZD7 CRD” value in assay [3] is listed as “no effect”.
